Data as given in PubChem BioAssay (NCI).
“And” between values parts separate entries of the source, which are not always exact repeats. Equal entries are not always repeated.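 Dose response: 5 concentrations. Exposure: 48 h. Format: 96-well plates. Endpoint: linear interpolation; highest concentration if not reached. GI50 is the concentration that inhibits growth by half. TGI: concentration producing complete growth inhibition.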

What was measured:
Experiment in all cases: NCI anticancer screen, dose series, 48 h
[1] = tested on: U251 CNS
[2] = tested on: HCT-15 colon
[3] = tested on: OVCAR-5 ovarian
[4] = tested on: KM20L2 colon
[5] = tested on: UO-31 renal
[6] = tested on: XF 498 CNS
[7] = tested on: DLD-1 colon
[8] = tested on: HOP-62 NSCLC
[9] = tested on: NCI/ADR-RES ovarian
[10] = tested on: MOLT-4 leukemia
[11] = tested on: MDA-MB-231 breast

| SMILES | TGI [1] | TGI [2] | TGI [3] | TGI [4] | TGI [5] | TGI [6] | TGI [7] | TGI [8] | TGI [9] | TGI [10] | TGI [11] | GI50 [1] | GI50 [2] | GI50 [8] | GI50 [4] |
| --- | --- | --- | --- | --- | --- | --- | --- | --- | --- | --- | --- | --- | --- | --- | --- |
| COC(=O)C1CCC(=O)N1C(=O)Cc1ccc(OC)cc1 (configuration not stated) | > 100 µM | > 100 µM | > 100 µM | > 100 µM | > 100 µM | > 100 µM |  |  |  |  |  |  |  |  |  |
| Cc1ccc(C(C)(C)C[P+](C)(c2ccccc2)c2ccccc2)cc1 | > 100 µM | > 100 µM | > 100 µM | > 88.8 µM | > 85 µM | 12.9 µM | > 100 µM | 75.9 µM | > 100 µM | 42.7 µM |  |  |  |  |  |
| Nc1cccc2c1C(=O)c1cccc(N)c1C2=O | > 100 µM | > 100 µM | > 100 µM | > 100 µM | > 100 µM | 69.4 µM | > 100 µM | > 100 µM |  | > 100 µM |  |  |  |  |  |
| C/C(=C\c1ccccn1)c1ccccn1 | > 100 µM | > 100 µM | > 100 µM |  | > 100 µM |  |  | > 100 µM | > 100 µM | > 100 µM | > 100 µM |  |  |  |  |
| Cc1cc(=O)n2nc(SCc3ccccc3)sc2n1 | > 100 µM | > 100 µM | > 100 µM |  | 67.5 µM |  |  | > 100 µM | > 100 µM | > 100 µM | > 100 µM |  |  |  |  |
| CN(C)/N=C/c1cn(C)c(=O)n(C)c1=O | > 100 µM | > 100 µM | > 100 µM |  | > 100 µM |  |  | > 100 µM | > 100 µM | > 100 µM | > 100 µM |  |  |  |  |
| c1ccc(CCN2CCc3[nH]c4ccccc4c3C2)cc1 | 31.9 µM | 46.2 µM | 67 µM |  | 32 µM |  |  | 45.6 µM | 36.9 µM | 70.5 µM | 87.7 µM |  |  |  |  |
| COc1cc2c(cc1OCCCC(=O)Nc1cc(C(=O)Nc3cc(C(=O)Nc4cc(C(=O)NCCCN(C)C)n(C)n4)n(C)n3)n(C)n1)N=CC1CCCN1C2=O (configuration not stated) | > 100 µM | > 100 µM | 72.2 µM |  | 16.6 µM |  |  | > 100 µM | 81.7 µM | > 100 µM | 55.5 µM |  |  |  |  |
| O=C(CCN1CCCC1)Nc1ccc2sc3ccccc3c(=O)c2n1 | 18.5 µM | 16.8 µM | 19 µM |  | 16.3 µM |  |  | 19.6 µM | 21.4 µM | 17.7 µM | 18.6 µM |  |  |  |  |
| C(=C\c1cccc(/C=C/c2ccccn2)n1)/c1ccccn1 | > 100 µM | > 100 µM | > 100 µM |  | > 100 µM |  |  | > 100 µM | > 100 µM | > 100 µM | > 100 µM |  |  |  |  |
| CN(C)CCNC(=O)c1ccc(NCCCN(C)CCCNc2ccc3c(=O)n(CCN(C)C)c(=O)n4c5ccccc5c(=O)c2c34)c2c(=O)c3ccccc3[nH]c12 | 0.257 µM | 1.31 µM | 0.68 µM |  | 0.301 µM |  |  | 0.309 µM | 3.32 µM | 1.1 µM | 0.234 µM |  |  |  |  |
| CCOC(=O)C1(C(=O)OCC)[C@H](c2ccccc2)C2=NO[C@@H]3CCC[C@H]1[C@H]23 | > 100 µM | > 100 µM | > 100 µM |  | > 100 µM |  |  | > 100 µM | > 100 µM | > 100 µM | > 100 µM |  |  |  |  |
| Nc1nc(-c2ccccc2N=NN2CCCC2)nc2ccccc12 | 8.91 µM | 11.1 µM | 4.66 µM |  | 3.43 µM |  |  | 5.11 µM | 12.2 µM | 3.52 µM | 3.63 µM |  |  |  |  |
| CC[N+]1(C)CCC(O)(/C=C/c2ccc(OC)cc2)C(C(=O)/C=C/c2ccc(OC)cc2)C1 (configuration not stated) | 33.9 µM | > 55.4 µM | 44.1 µM |  | 26.6 µM |  |  | 42.9 µM | > 60.8 µM | 4.94 µM | > 53.9 µM |  |  |  |  |
| [Cl][Pt+2][Cl].[NH-]C1CCCCC1[NH-] (configuration not stated) | > 100 µM | 35.3 µM and > 100 µM and 37.9 µM | 78.4 µM and > 100 µM and 14.3 µM | 44.6 µM and > 52.9 µM and 29.6 µM | > 100 µM |  | > 100 µM | > 100 µM | > 60.6 µM and > 100 µM and 13.1 µM | > 51.2 µM and > 96.6 µM and 37.9 µM |  | 21 µM and 9.15 µM and 13.2 µM | 5.58 µM and 4.7 µM and 0.677 µM | 53.7 µM and > 100 µM and 22.3 µM | 8070 nM and 2190 nM and 1360 nM |
| N=C1N(S(=O)(=O)c2ccccc2)[C@@H](Cc2ccccc2)[C@H](c2ccccc2)C1(c1ccccc1)c1ccccc1 | > 100 µM | > 100 µM | > 100 µM |  | > 100 µM |  |  | > 100 µM | > 100 µM | > 100 µM | > 100 µM |  |  |  |  |
| CCNc1ccc2c(c1)Cc1ccccc1-2 | > 100 µM | > 100 µM | > 100 µM |  | > 100 µM |  |  | > 100 µM | > 100 µM | > 100 µM | > 100 µM |  |  |  |  |
